On the set-up of data set [1]: method as in doi:10.1002/adsc.202100201. The conditions noted are these: cited from earlier work.
Data set [2] in a line: Aqueous solubility (saturated conditions, 3 days, UV 297 nm). In kind it is physicochemical. The conditions noted are these: water, 25 °C, thermodynamic from solid. Here is the method:
The compounds were incubated at 25 °C in water (saturated conditions) during 3 days under orbital stirring (1000 rpm). Then, the samples were centrifuged, and the supernatants (200 μL) were analyzed in triplicate in a 96-well plate, using a phloretin calibration curve in methanol (0–200 μg/mL). The absorbance was measured at 297 nm in a UV–vis spectrophotometer (Tecan Infinite M200).

Data set [3] can be described thus: In vitro percutaneous absorption, Franz static diffusion cells. The class given is in vitro ADME. The conditions noted are these: pig skin biopsies, 24 h exposure; for effect of acylation on skin absorption: versus phloretin and 4′-O-α-glucoside. Here is the method:
The study was carried out in vitro with pig biopsies placed on Franz static diffusion cells (3 mL, 1.86 cm^2 of exposed area, […], Lara-Spiral, Courtenon, France) in order to determine the distribution of the active compound (API) at the different skin layers after an exposure time of 24 h. All materials and procedures for this test have been described in a previous report employing phloretin and two glucosides.[33] The concentration of the extracted active compound was determined with the HPLC method described before.
Figure 6 In vitro percutaneous absorption of acylated derivatives of phloretin and their precursors (phloretin and its 4′-O-α-glucoside) within the different skin layers. W is the surface excess, SC is the stratum corneum, E is the epidermis, D is the dermis, FR is the fluid receptor, and Perc. Abs. is the percutaneous absorption. The results are expressed as μg/cm^2 of the active pharmaceutical ingredient (API). Mean values ± standard deviations, n = 3; *p < 0.05 vs phloretin; ^#p < 0.05 vs α-Glc-phloretin.

Molecules are shown by their SMILES. Converted amounts (≈) assume the structure as drawn.

Usually solubility stands for the concentration that dissolves in the medium under given conditions.

For the compound `O=C(CCc1ccc(O)cc1)c1c(O)cc(O[C@H]2O[C@H](CO)[C@@H](O)[C@H](O)[C@H]2O)cc1O` [phloretin 4′-O-α-D-glucoside, phloretin 4′-O-α-D-glucopyranoside], the “aqueous solubility greater than aglycone” value in data set [1] (versus phloretin aglycone) was 71 fold. The “solubility” value in data set [1] (water, 25 °C, data available in a previous article) was 1644 ± 101 mg/L (≈ 3770 µM).

As to `CCCCCCCCCCCCCCCC(=O)OC[C@H]1O[C@H](Oc2cc(O)c(C(=O)CCc3ccc(O)cc3)c(O)c2)[C@H](O)[C@@H](O)[C@@H]1O` [1c, phloretin 4′-O-(6-O-palmitoyl)-α-D-glucopyranoside], the solubility at 3 days in data set [2] is 7.1 ± 0.3 µg/mL (≈ 10.5 µM). In data set [3], the “effect of acylation on skin absorption” value is “no significant effect”.

In data set [2], `CCCCCCCCCCCC(=O)OC[C@H]1O[C@H](Oc2cc(O)c(C(=O)CCc3ccc(O)cc3)c(O)c2)[C@H](O)[C@@H](O)[C@@H]1O` [1b, phloretin 4′-O-(6-O-lauroyl)-α-D-glucopyranoside] gave a solubility at 3 days of 6 ± 0.2 µg/mL (≈ 9.7 µM). Also, the “percutaneous absorption, increase versus phloretin and 4′-O-α-glucoside” value in data set [3] is listed as “approximately 3 fold”.

In data set [2], `CCCCCCCC(=O)OC[C@H]1O[C@H](Oc2cc(O)c(C(=O)CCc3ccc(O)cc3)c(O)c2)[C@H](O)[C@@H](O)[C@@H]1O` [1a, phloretin 4′-O-(6-O-octanoyl)-α-D-glucopyranoside] had a solubility at 3 days of 22.1 ± 0.5 µg/mL (≈ 39.3 µM). In data set [3], the “effect of acylation on skin absorption” value was “no significant effect”.
